21 compounds from PubChem BioAssay AID328 (DTP/NCI, 2004) can be followed below.

Where “and” joins values, the source holds several entries; their conditions need not be identical. Identical values can stand only once. Inconclusive results and toxic doses are left out.

The subject of the assay is BDF1 mice, P388 leukemia ip, median survival T/C. Put plainly: NCI In Vivo Anticancer Drug Screen. Data for tumor model P388 Leukemia (intraperitoneal) in B6D2F1 (BDF1) mice. The note with it: endpoint: median survival time, higher = longer survival. In a few lines: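 In tumour-bearing mice, survival after compound treatment is set against the vehicle group and given as a quotient.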

The mark [1] stands for this setting: dose: 50.0 mg/kg/injection, schedule: Q04DX003 (ip), vehicle: saline with Tween-80.
Setting [2] is: dose: 100.0 mg/kg/injection, schedule: Q04DX003 (ip), vehicle: saline with Tween-80.
[3] abbreviates: dose: 200.0 mg/kg/injection, schedule: Q04DX003 (ip), vehicle: saline with Tween-80.
The mark [4] stands for this setting: dose: 25.0 mg/kg/injection, schedule: Q01DX009 (ip), vehicle: saline.
Setting [5] is: dose: 50.0 mg/kg/injection, schedule: Q01DX009 (ip), vehicle: saline.
The mark [6] stands for this setting: dose: 400.0 mg/kg/injection, schedule: Q04DX003 (ip), vehicle: saline with Tween-80.
[7] abbreviates: dose: 12.5 mg/kg/injection, schedule: Q04DX003 (ip), vehicle: saline with Tween-80.
Where [8] appears, read: dose: 100.0 mg/kg/injection, schedule: Q04DX003 (ip), vehicle: gum acacia.
Where [9] appears, read: dose: 200.0 mg/kg/injection, schedule: Q04DX003 (ip), vehicle: gum acacia.
Where [10] appears, read: dose: 400.0 mg/kg/injection, schedule: Q04DX003 (ip), vehicle: gum acacia.
The mark [11] stands for this setting: dose: 100.0 mg/kg/injection, schedule: Q04DX003 (ip), vehicle: Klucel (hydroxypropylcellulose) (HPC).
[12] abbreviates: dose: 400.0 mg/kg/injection, schedule: Q04DX003 (ip), vehicle: Klucel (hydroxypropylcellulose) (HPC).
The mark [13] stands for this setting: dose: 50.0 mg/kg/injection, schedule: Q01DX009 (ip), vehicle: saline with Tween-80.
Where [14] appears, read: dose: 100.0 mg/kg/injection, schedule: Q01DX009 (ip), vehicle: saline with Tween-80.
The mark [15] stands for this setting: dose: 200.0 mg/kg/injection, schedule: Q01DX009 (ip), vehicle: saline with Tween-80.

Take `COc1ccccc1NC(=O)Nc1ccc(C(=O)OCC(C)C)cc1`: the T/C is, setting by setting: under setting [1], 108 % of control; under setting [2], 91 % of control; under setting [3], 100 % of control.

`NC1C=CC(CCC(N)C(=O)O)C=C1` (centres undefined): the T/C reads like this: (dose: 12.5 mg/kg/injection, schedule: Q01DX009 (ip), vehicle: saline) 100 % of control; under setting [4], 100 % of control and 105 % of control; under setting [5], 100 % of control; (dose: 100.0 mg/kg/injection, schedule: Q01DX009 (ip), vehicle: saline) 110 % of control.

Take `C=CCCCCCCCCCCCCCCCC` (tested in a mixture with another compound): the T/C (dose: 50.0 mg/kg/injection, schedule: Q01DX009 (ip), vehicle: other) was 113 % of control.

On to `Cc1ccc(C(=O)CCCCl)cc1C`, for which the T/C by setting is: under setting [2], 104 % of control; under setting [3], 104 % of control; under setting [6], 109 % of control.

In the case of `Nc1ccc(/C=C/c2ccnc3ccccc23)cc1`, the T/C reads like this: (dose: 3.13 mg/kg/injection, schedule: Q04DX003 (ip), vehicle: saline with Tween-80) 109 % of control; (dose: 6.25 mg/kg/injection, schedule: Q04DX003 (ip), vehicle: saline with Tween-80) 109 % of control; (dose: 12.5 mg/kg/injection, schedule: Q01DX009 (ip), vehicle: saline with Tween-80) 112 % of control; under setting [7], 109 % of control; (dose: 25.0 mg/kg/injection, schedule: Q01DX009 (ip), vehicle: saline with Tween-80) 91 % of control.

On to `CC1CN1P(=O)(N1CC1C)N1CC1C` (centres undefined), for which the T/C under setting [4] was 100 % of control; the T/C (dose: 33.0 mg/kg/injection, schedule: Q04DX003 (ip), vehicle: saline) is 222 % of control; the T/C under setting [5] is 105 % of control; the T/C (dose: 50.0 mg/kg/injection, schedule: Q04DX003 (ip), vehicle: saline) was 177 % of control and 186 % of control; the T/C (dose: 75.0 mg/kg/injection, schedule: Q04DX003 (ip), vehicle: saline) is 250 % of control and 116 % of control; the T/C (dose: 100.0 mg/kg/injection, schedule: Q04DX003 (ip), vehicle: saline) is 236 % of control.

Consider `Cc1ccc(N=C=O)cc1[N+](=O)[O-]`, for which the T/C was 100 % of control (dose: 25.0 mg/kg/injection, schedule: Q01DX009 (ip), vehicle: gum acacia); 100 % of control (dose: 50.0 mg/kg/injection, schedule: Q01DX009 (ip), vehicle: gum acacia); 91 % of control under setting [8]; 95 % of control under setting [9]; 95 % of control under setting [10].

For the compound `Cc1ccc(C(CC(=O)O)CC(=O)O)c(O)c1`, the T/C (dose: 100.0 mg/kg/injection, schedule: Q01DX009 (ip), vehicle: gum acacia) was 100 % of control; the T/C under setting [8] was 111 % of control; the T/C (dose: 200.0 mg/kg/injection, schedule: Q01DX009 (ip), vehicle: gum acacia) was 103 % of control; the T/C under setting [9] is 103 % of control; the T/C (dose: 400.0 mg/kg/injection, schedule: Q01DX009 (ip), vehicle: gum acacia) is 89 % of control; the T/C under setting [10] was 88 % of control.

As for `CCCC(C(=O)OCCN(CC)CC)(c1ccccc1)c1ccccc1`, the T/C is, setting by setting: (dose: 54.0 mg/kg/injection, schedule: Q01DX001 (ip), vehicle: saline) 105 % of control; (dose: 90.0 mg/kg/injection, schedule: Q01DX001 (ip), vehicle: saline) 104 % of control; (dose: 150.0 mg/kg/injection, schedule: Q01DX001 (ip), vehicle: saline) 105 % of control.

For `c1ccc2c(c1)CCc1cc3c(nc1-2)-c1ccccc1CC3`, the T/C under setting [11] was 112 % of control and the T/C under setting [12] was 112 % of control.

Turning to `O=C(O)c1ccc(-c2ccccc2)cc1`, the T/C reads like this: under setting [13], 100 % of control; under setting [14], 104 % of control; under setting [2], 104 % of control; under setting [15], 95 % of control; under setting [3], 104 % of control.

For the compound `O=C1CCC(C(=O)N/N=C\C=N/NC(=O)C2CCC(=O)N2)N1` (centres undefined), the T/C (dose: 20.0 mg/kg/injection, schedule: Q01DX009 (ip), vehicle: saline with Tween-80) is 91 % of control.

Consider `CC(=O)OCc1c(COC(C)=O)c(-c2ccccc2)n2c1CCC2`, for which, for the setting “dose: 6.25 mg/kg/injection, schedule: Q01DX009 (ip), vehicle: Klucel (hydroxypropylcellulose) (HPC)”, the T/C was 107 % of control.

In the case of `COc1cc(NS(=O)(=O)c2ccccc2)ccc1C`, the T/C runs as follows: (dose: 25.0 mg/kg/injection, schedule: Q01DX009 (ip), vehicle: Klucel (hydroxypropylcellulose) (HPC)) 100 % of control; (dose: 50.0 mg/kg/injection, schedule: Q01DX009 (ip), vehicle: Klucel (hydroxypropylcellulose) (HPC)) 100 % of control; (dose: 100.0 mg/kg/injection, schedule: Q01DX009 (ip), vehicle: Klucel (hydroxypropylcellulose) (HPC)) 89 % of control and 110 % of control; under setting [11], 104 % of control; (dose: 200.0 mg/kg/injection, schedule: Q04DX003 (ip), vehicle: Klucel (hydroxypropylcellulose) (HPC)) 95 % of control; under setting [12], 95 % of control.

As for `Cc1cc2c(cc1C)C(O)C(N1CCN(C)CC1)CCC2` (centres undefined), the T/C reads like this: under setting [1], 109 % of control; under setting [2], 100 % of control; under setting [3], 100 % of control.

As to `O=[N+]([O-])c1cccc(N2CN(c3ccccc3)NC(c3ccccc3)=N2)c1`, the T/C was 100 % of control under setting [7]; 96 % of control (dose: 25.0 mg/kg/injection, schedule: Q04DX003 (ip), vehicle: saline with Tween-80); 105 % of control under setting [1].

Consider `COC(=O)/C=C/CCOS(C)(=O)=O`, for which the T/C was 104 % of control (dose: 100.0 mg/kg/injection, schedule: Q04DX002 (ip), vehicle: saline with Tween-80); 124 % of control (dose: 200.0 mg/kg/injection, schedule: Q04DX002 (ip), vehicle: saline with Tween-80); 107 % of control (dose: 400.0 mg/kg/injection, schedule: Q04DX002 (ip), vehicle: saline with Tween-80).

As for `O=C1OC2CCC3C1C3C2Br` (centres undefined), the T/C (dose: 2.32 mg/kg/injection, schedule: Q04DX003 (ip), vehicle: Klucel (hydroxypropylcellulose) (HPC)) is 95 % of control; the T/C (dose: 4.65 mg/kg/injection, schedule: Q04DX003 (ip), vehicle: Klucel (hydroxypropylcellulose) (HPC)) was 95 % of control; the T/C (dose: 9.3 mg/kg/injection, schedule: Q04DX003 (ip), vehicle: Klucel (hydroxypropylcellulose) (HPC)) is 95 % of control; the T/C (dose: 13.0 mg/kg/injection, schedule: Q04DX003 (ip), vehicle: Klucel (hydroxypropylcellulose) (HPC)) was 115 % of control; the T/C (dose: 21.0 mg/kg/injection, schedule: Q04DX003 (ip), vehicle: Klucel (hydroxypropylcellulose) (HPC)) was 115 % of control; the T/C (dose: 30.0 mg/kg/injection, schedule: Q04DX003 (ip), vehicle: Klucel (hydroxypropylcellulose) (HPC)) is 120 % of control. Further, the T/C is 109 % of control (dose: 45.0 mg/kg/injection, schedule: Q04DX003 (ip), vehicle: Klucel (hydroxypropylcellulose) (HPC)) and 95 % of control (dose: 70.0 mg/kg/injection, schedule: Q04DX003 (ip), vehicle: Klucel (hydroxypropylcellulose) (HPC)).

`NC(C(=O)O)C(O)c1cnc[nH]1` (centres undefined): the T/C is 101 % of control (dose: 25.0 mg/kg/injection, schedule: Q01DX009 (ip), vehicle: water); 96 % of control (dose: 50.0 mg/kg/injection, schedule: Q01DX009 (ip), vehicle: water); 97 % of control (dose: 100.0 mg/kg/injection, schedule: Q01DX009 (ip), vehicle: water); 93 % of control (dose: 200.0 mg/kg/injection, schedule: Q01DX009 (ip), vehicle: water); 97 % of control (dose: 400.0 mg/kg/injection, schedule: Q01DX009 (ip), vehicle: water).

Turning to `Cc1ncc([N+](=O)[O-])n1CCOc1c(Br)cc(Br)cc1CN(C)C1CCCCC1`, the T/C was 100 % of control under setting [2], 105 % of control under setting [3] and 115 % of control under setting [6].

Take `Nc1ncncc1-c1cccc2ccccc12`: the T/C is 108 % of control under setting [13], 99 % of control under setting [14] and 108 % of control under setting [15].
